Where two headings read alike, the source gives them in different places.
How the values were obtained:
Water solubility = format: physicochemical
[1] = Solid state stability at 40° C./75% RH (HPLC and polymorphic form); format: physicochemical
Protocol: The solid state stabilities as shown in Tables 5 and 7 were measured using the following procedure. A preliminary HPLC method was developed to investigate the stability of the salt forms of compound 1. The HPLC conditions are listed below.

[2] = test system: endothelial cell survival; conditions: cited from earlier work
tumor angiogenesis = conditions: in vivo; cited from earlier work
[3] = test system: VEGF-stimulated receptor autophosphorylation; conditions: cited from earlier work
human xenograft tumors = conditions: in vivo; cited from earlier work

Row | Solid state stability, polymorphic form found, T (1 week) close ([1]; bis-HBr salt) | Solid state stability, polymorphic form found, T (1 week) open ([1]; bis-HBr salt) | Solid state stability, polymorphic form found, T (4 week) close ([1]; bis-HBr salt) | Solid state stability, polymorphic form found, T (4 week) open ([1]; bis-HBr salt) | Solid state stability, polymorphic form found, T (6 week) close ([1]; bis-HBr salt) | Solid state stability, polymorphic form found, T (6 week) open ([1]; bis-HBr salt) | Solid state stability, polymorphic form found, T (0) ([1]; bis-HBr salt) | Solid state stability, polymorphic form found, T (1 week) close ([1]; bis-maleate salt) | Solid state stability, polymorphic form found, T (4 week) close ([1]; bis-maleate salt) | Solid state stability (HPLC %) T (6 week) close ([1]; bis-maleate salt) | Solid state stability, polymorphic form found, T (6 week) close ([1]; bis-maleate salt) | Solid state stability (HPLC %) T (0) ([1]; bis-maleate salt) | Solid state stability, polymorphic form found, T (0) ([1]; bis-maleate salt) | Structure (SMILES) | also measured
1 | Form 1 | Form I & II | Form I & II | Form II | Form II | Form II | Form 1 |  |  |  |  |  |  | CNC(=O)c1c(C)oc2cc(Oc3ccnc4cc(OCCN5CCOCC5)ccc34)ccc12 [Bis-HBr Form I, N,2-dimethyl-6-[7-(2-morpholinoethoxy)quinolin-4-yloxy]benzofuran-3-carboxamide] | solubility (Water solubility; pH 3.4, read-out: Solubility): > 30 mg/mL
2 |  |  |  |  |  |  |  | Form III | Form III | 99.9% | Form III | 99.9% | Form III | CNC(=O)c1c(C)oc2cc(Oc3ccnc4cc(OCCN5CCOCC5)ccc34)ccc12 [Bis-maleate Form III, N,2-dimethyl-6-[7-(2-morpholinoethoxy)quinolin-4-yloxy]benzofuran-3-carboxamide] | solubility (Water solubility; pH 3.8, read-out: Solubility): ≥ 30 mg/mL
3 | Form II | Form II | Form II | Form II | Form II | Form II | Form II |  |  |  |  |  |  | CNC(=O)c1c(C)oc2cc(Oc3ccnc4cc(OCCN5CCOCC5)ccc34)ccc12 [Bis-HBr Form II, N,2-dimethyl-6-[7-(2-morpholinoethoxy)quinolin-4-yloxy]benzofuran-3-carboxamide] | solubility (Water solubility; pH 3.4): >30 mg/ml (pH 3.4); Solid state stability (HPLC %) T (1 week) close ([1]; bis-HBr salt): 98.70%; Solid state stability (HPLC %) T (1 week) open ([1]; bis-HBr salt): 98.61%; Solid state stability (HPLC %) T (4 week) close ([1]; bis-HBr salt): 98.66%; Solid state stability (HPLC %) T (4 week) open ([1]; bis-HBr salt): 98.62%; Solid state stability (HPLC %) T (6 week) close ([1]; bis-HBr salt): 98.61%; Solid state stability (HPLC %) T (6 week) open ([1]; bis-HBr salt): 98.49%; Solid state stability (HPLC %) T (0) ([1]; bis-HBr salt): 98.53%
4 |  |  |  |  |  |  |  | Form I | Form I | 99.9% | Form I | 99.9% | Form I | CNC(=O)c1c(C)oc2cc(Oc3ccnc4cc(OCCN5CCOCC5)ccc34)ccc12 [Bis-maleate Form I, N,2-dimethyl-6-[7-(2-morpholinoethoxy)quinolin-4-yloxy]benzofuran-3-carboxamide] | solubility (Water solubility; pH 3.6, read-out: Solubility): ≥ 150 mg/mL; Solid state stability (HPLC %) T (1 week) close ([1]; bis-maleate salt): 99.9%; Solid state stability (HPLC %) T (1 week) open ([1]; bis-maleate salt): 99.9%; Solid state stability, polymorphic form found, T (1 week) open ([1]; bis-maleate salt): Form I; Solid state stability (HPLC %) T (4 week) close ([1]; bis-maleate salt): 99.9%; Solid state stability (HPLC %) T (4 week) open ([1]; bis-maleate salt): 99.9%; Solid state stability, polymorphic form found, T (4 week) open ([1]; bis-maleate salt): Form I; Solid state stability (HPLC %) T (6 week) open ([1]; bis-maleate salt): 99.8%; Solid state stability, polymorphic form found, T (6 week) open ([1]; bis-maleate salt): Form I
5 |  |  |  |  |  |  |  |  |  |  |  |  |  | CNC(=O)c1c(C)oc2cc(Oc3ccnc4cc(OCCN5CCOCC5)ccc34)ccc12 [compound 1, N,2-dimethyl-6-[7-(2-morpholinoethoxy)quinolin-4-yloxy]benzofuran-3-carboxamide] | blocking of endothelial cell survival [2]: selectively blocks; inhibition of tumor angiogenesis (tumor angiogenesis): significant inhibition; blocking of VEGF-stimulated receptor autophosphorylation [3]: selectively blocks; inhibition of the growth of human xenograft tumors (human xenograft tumors): significant inhibition
